From US20170121678A1, “METHODS AND COMPOSITIONS TO STABILIZE DIFFERENT STEM CELL STATES” (UNIVERSITY OF WASHINGTON - CENTER COMMERCIALIZATION, priority 2014, published 2017)
Entries after “also recorded” stand apart in the source; their conditions may differ.

Assays:
Format in all cases: cell-based, human
[1] = tested on: histone methylation marks (H3K27me3, H3K9me3, H3K4me3, H3K9/K14Ac) in hESCs; assay: Western blot analysis of histone marks; details: 1MNA 0.5 mM, 72 hr, primed hESCs (Elf1 AF), low L-methionine media
Experimental: Cellular extracts were prepared using a lysis buffer containing 20 mM Tris HCl (pH 7.5), 150 mM NaCl, 15% glycerol, 1% Triton, 25 mM (3-glycerolphosphate, 50 mM NaF, 10 mM sodium pyrophosphate, orthovanadate, PMSF), protease inhibitor cocktail (Roche) and 2% SDS. 25 U of BENZONASE® nuclease (EMD Chemicals) and 20 mM of DTT were added to the lysis buffer right before use. Protein concentrations were then determined by the method of Bradford. Fifteen micrograms of protein extracts were loaded, separated by 4-20% SDS-PAGE, and transferred to polyvinylidene difluoride membranes (Hybond-N+, Amersham Pharmacia Biotech). Membranes were blocked with 5% nonfat dry milk for 60 min at room temperature, and incubated overnight at 4° C. with primary antibody. […]
Naïve hESCs (Elf1 2iLIF) grown on MATRIGEL® were treated with 100 μM of STAT3 inhibitor (Selleckchem) for 6 hr or 24 hr and analyzed for methylation marks by Western blot and ChIP Seq. […]
(§1) Naïve Elf1 2iLIF cells were transfected in MATRIGEL® coated plates in MEF-CM supplemented with ROCK inhibitors (Torcis) using LIPOFECTAMINE™ RNAiMAX™ (Life Technologies). siRNA targeting NNMT (Hs-NNMT-8) was purchased from Qiagen as FLEXITUBE® siRNA premix, and siRNA targeting luciferase was used as control. siRNAs against NNMT and luciferase were used at 50 nM final concentration. […] Bright field and fluorescence images were taken after 3 days. […]

[2] = tested on: Wnt signaling (BAR reporter) in Elf1 cells; assay: BAR Wnt reporter activity in Elf1 reporter cells; details: for BAR reporter activity: naïve Elf1 cells, 72 h, IWP2 2 μM, XAV939 5 μM, siRNA 10 nM
Experimental: Elf1 cells grown in naïve media (2iL or 2iLIF) or primed media (AF) were infected with BAR reporter lentivirus and seeded onto MATRIGEL®-coated plates in MEF-CM with 10 μM Y-27632, and 1 μM Thiazovivin (ROCK inhibitors, Tocris). Transduced Elf cells were cultured for a week on MATRIGEL®, then passaged onto MEF plates for further selection and expansion. Elf1 naïve reporter cells were harvested as single cells via TRYPLE™ Express and FACS sorted for the population with both Venus and DsRed (Discosoma sp. Red fluorescent protein) positive signals. DsRed positive colonies of Elf1 primed reporter cells were manually dissected, transferred onto MEF plates, and the same positive selection was repeated one more round or two depending on the selection efficiency. Negative colonies were manually removed as a negative selection. Once the DsRed positive lines were isolated and stable lines established, the primed Elf1 reporter cells were passaged with dispase.
(§2) Wnt secretion and signaling were inhibited in naïve hESCs (Elf1, WIN1) by treatment with IWP2 (2 μM, Torcis) or XAV939 (5 μM, Sigma). Wnt pathway was activated in primed Elf1 AF reporter cells using a GSK3 inhibitor, CHIR99021 (72 hr, 10 μM, AxonMedChem). Both IWP2 and CHIR99021 were reconstituted in DMSO.
L and L-Wnt3A cells (ATCC) were cultured in 15 cm plates in 10% FBS/DMEM media until 90% confluent. Medium was collected every 48 hr for three batches. Biological activity of secreted Wnt3A in the individual batches of the conditional medium was confirmed in 293T-BAR reporter cells, then batches were pooled and filtered. Primed (Elf1 AF) reporter cells were grown on MATRIGEL® with 50% LCM or 50% Wnt3A-CM for 3 days prior taking bright field and fluorescent pictures.
Naïve Elf1 2iLIF cells were transfected in MATRIGEL® coated plates in MEF-CM supplemented with ROCK inhibitors (Torcis) using LIPOFECTAMINE™ RNAiMAX™ (Life Technologies). siRNA targeting NNMT (Hs-NNMT-8) was purchased from Qiagen as FLEXITUBE® siRNA premix, and siRNA targeting luciferase was used as control. siRNAs against NNMT and luciferase were used at 50 nM final concentration. Proteins and RNAs were extracted 72 hr after transfection. siRNA targeting beta-catenin (Invitrogen, CTNNBI, SILENCER® Select ID s437) and SILENCER® Select Negative Control 1 (Invitrogen) were transfected in naïve Elf1 2iLIF cells at 10 nM final concentration following a reverse transfection protocol. Bright field and fluorescence images were taken after 3 days. The efficacy of NNMT and beta-catenin siRNAs was confirmed by qPCR analysis.

[3] = tested on: NNMT, miR-372, miR-10a expression in naïve hESCs (Elf1); assay: qPCR analysis of NNMT and microRNA expression; details: IWP2 2 μM, 72 hr
Experimental: Total RNA was extracted using TRIZOL® and subsequently analyzed by SYBR® green qPCR with the 7300 real time PCR system (Applied Biosystems) as well as TAQMAN® qPCR (Applied Biosystems).
qPCR of miRNAs was conducted using AQMAN®miRNA assays (Applied Biosystems). Raw Ct (threshold cycle) values for miRNAs were normalized to RNU66 (endogenous snoRNA, internal control). Linear expression values for all qPCR experiments were calculated using the 2 (−ΔCt) method. P-values were calculated using a student's t-test (*p<0.05, **p<0.01, ***p<0.001).
as §2, §1

naïve hESCs (WIN1, Elf1) = assay: Seahorse mitostress protocol, OCR changes in response to FCCP; details: for OCR changes in response to FCCP: naïve hESCs (WIN1)
Experimental: Naïve and primed ESCs were seeded in their specific growth media onto 96-well Seahorse plates (Seahorse Bioscience) pre-coated with MATRIGEL® at 25×10^4 or 40×10^4 cells/well. Culture media were exchanged for base media (unbuffered DMEM (Sigma D5030) supplemented with sodium pyruvate (Gibco, 1 mM) and with 25 mM glucose (for mito stress assay), 25 mM glucose and 50 μM carnitine (for palmitate assay), or 2 mM glutamine (for glucose stress assay)) 1 hr prior to the assay and for the duration of the measurement. Substrates and selective inhibitors were added during the measurements to achieve final concentrations of glucose (2.5 mM), […] (FCCP, 300 nM-500 nM), oligomycin ([…]), antimycin (2.5 μM), rotenone (2.5 μM), palmitate (50 μM in BSA), BSA (bovine serum albumin) and ETO (50 μM).
The mitochondrial stress protocol starts with the measurement of baseline oxygen consumption rate (OCR) and extracellular acidification rate (ECAR) followed by measurement of OCR and ECAR changes in response to addition of oligomycin, FCCP and finally antimycin and rotenone.
Then palmitate assay starts with the measurement of baseline OCR followed by measurement of OCR changes in response to injection of palmitate or BSA (in negative controls) and ETO. The OCR and ECAR values were further normalized to the number of cells present in each well, quantified by Hoechst staining (H033342; Sigma-Aldrich) as measured using fluorescence at 355 nm excitation and 460 nm emission (ENVISION® 2104 Multilabel reader, Perkin Elmer). Changes in OCR and ECAR in response to substrates and inhibitors addition were defined as the maximal change after the chemical addition compared to the last OCR value before the addition.
as §2
WIN1 and Elf1 cells were seeded in Seahorse plates in naïve (WIN1, Elf1) or primed (WIN1 AF) conditions with or without Kynurenine (100 μM, Sigma) and mitostress protocol was performed 2 days later.
WIN1 cells were seeded in Seahorse plates 2 days prior change of media with media without L-methionine (Sigma 0422 supplemented with 0.584 gm/L L-glutamine) and addition of SAM (500 μM). Five hours later Seahorse mitostress protocol was performed.

[4] = primed hESCs (Elf1 AF), 3 days, CHIR99021 10 μM, 50% Wnt3A-CM

C[n+]1cccc(C(N)=O)c1 [1MNA, 1-methylnicotinamide]
H3K27me3 mark [1]: reduces | H3K27me3 mark ([1]; listed as 1 MNA): decreased

Cc1c[nH]c(-c2cnc(NCCNc3ccc(C#N)cn3)nc2-c2ccc(Cl)cc2Cl)n1 [CHIR99021]
BAR reporter [2, 4]: re-activation | differentiation [2, 4]: induces differentiation

Cc1ccc2nc(NC(=O)CSc3nc4c(c(=O)n3-c3ccccc3)SCC4)sc2c1 [IWP2]
NNMT expression (qPCR) [3]: downregulates | miR-372 expression (qPCR) [3]: downregulates | OCR changes after FCCP (naïve hESCs (WIN1, Elf1); IWP2 2 μM, 48 hr, naïve hESCs (Elf1, WIN1) and transitioning to primed (WIN1 AF)): decreases | BAR reporter activity [2]: represses; also recorded: inhibit

C[S+](CC[C@H](N)C(=O)[O-])C[C@H]1O[C@@H](n2cnc3c(N)ncnc32)[C@H](O)[C@@H]1O (stereo partly shown) [SAM, S-adenosyl methionine]
OCR changes in response to FCCP (naïve hESCs (WIN1, Elf1); SAM 500 μM, 5 hr, media without methionine): reduces | metabolic profile in naïve hESCs (naïve hESCs (WIN1, Elf1); high levels of SAM (FIG. 4K-4L)): induce a primed-like metabolic profile

Oc1nc(-c2ccc(C(F)(F)F)cc2)nc2c1CSCC2 [XAV939]
BAR reporter activity [2]: dramatically downregulated; also recorded: inhibit

Nc1ccccc1C(=O)CC(N)C(=O)O (stereo not shown) [kynurenine]
OCR changes in response to FCCP (naïve hESCs (WIN1, Elf1); kynurenine 100 μM, 2 days): reduced | naïve to primed hESC metabolic switch (naïve hESCs (WIN1, Elf1); kynurenine added to the media (FIG. 4E)): accelerated
